Laboratory results from US7071169B2, “Pyrane derivatives as both ACE-and NEP-inhibitors” (Novartis AG, priority 2001, dated 2006).
Bridges are numbered along the chain shown (N, C = ends). Where no end group is shown, it is not given here.

Experiments:
[1] = test system: angiotensin I induced pressor response; assay: inhibition of the angiotensin I induced pressor response in normotensive rats; assay type: in vivo, rat; conditions: 10 mg/kg p.o., for 4 hours
Method: The in vivo test for i.v. administered compounds is performed with male, normotensive rats, which are anesthetized with sodium metofan. A femoral artery and femoral vein are cannulated respectively for direct blood pressure measurement on i.v. administration of angiotensin I and i.v. or p.o. administration of a compound of this invention. After the basal blood pressure is stabilized, pressor responses to 3 challenges of 300 ng/kg angiotensin I i.v., at 15 minute intervals, are obtained. Such pressure responses are usually again obtained at 15, 30, 60 and 90 minutes, and then every hour up to 6 hours after i.v. or p.o. administration of the compound to be tested, and compared with the initial responses. Any observed decrease of said pressor response is an indication of ACE inhibition.

[2] = test system: spontaneously hypertensive rat (SHR); assay: antihypertensive activity in conscious spontaneously hypertensive rat (SHR); assay type: in vivo; conditions: 11.6 mg/kg p.o.
Description: The antihypertensive activity can be determined, e.g., in the spontaneously hypertensive rat (SHR) and the desoxy-corticosterone acetate (DOCA)-salt hypertensive rat, e.g., according to Trapani et al., J. Cardiovasc. Pharmacol., Vol. 14, pp. 419–424 (1989).

[3] = biological target: ACE (Homo sapiens, UniProt P12821); assay: in vitro inhibition of ACE (hippuryl-histidyl-leucine hydrolysis); assay type: biochemical; conditions: ACE in vitro assay
Method: (§1) In vitro testing is most appropriate for the free carboxylic acids of the invention. The test compound is dissolved in dimethyl sulfoxide, ethanol, or 0.25M sodium bicarbonate solution, and the solution is diluted with buffer to the desired concentration.
The buffer for the ACE assay is 300 mM NaCl, 100 mM KH2PO4 (pH 8.3). The reaction is initiated by the addition of 100 μL of hippuryl-histidyl-leucine (2 mg/mL) to tubes containing enzyme and drug in a volume of 150 μL and tubes are incubated for 30 minutes at 37° C. The reaction is terminated by the addition of 0.75 mL 0.6N NaOH. 100 μL of freshly prepared o-phthalaldehyde solution (2 mg/mL in methanol) is added to the tubes, the contents are mixed and allowed to stand at room temperature. After 10 minutes, 100 μL of 6N HCl is added. The tubes are centrifuged and the supernatant optical density is read at 360 nm. The results are plotted against drug concentration to determine the IC50, i.e., the drug concentration which gives half the activity of the control sample containing no drug.

[4] = biological target: T1, NEP (EC 3.4.24.11) (Rattus norvegicus, UniProt P07861); assay: in vitro inhibition of NEP (hydrolysis of glutaryl-Ala-Ala-Phe-2-naphthylamide, GAAP assay); assay type: biochemical; conditions: rat kidney cortex membranes
T1 construct: rat kidney cortex membranes prepared by method of Maeda et al. (1983); from tissue; host or cells: rat kidney cortex membranes
T1 sequence (P07861 1-750): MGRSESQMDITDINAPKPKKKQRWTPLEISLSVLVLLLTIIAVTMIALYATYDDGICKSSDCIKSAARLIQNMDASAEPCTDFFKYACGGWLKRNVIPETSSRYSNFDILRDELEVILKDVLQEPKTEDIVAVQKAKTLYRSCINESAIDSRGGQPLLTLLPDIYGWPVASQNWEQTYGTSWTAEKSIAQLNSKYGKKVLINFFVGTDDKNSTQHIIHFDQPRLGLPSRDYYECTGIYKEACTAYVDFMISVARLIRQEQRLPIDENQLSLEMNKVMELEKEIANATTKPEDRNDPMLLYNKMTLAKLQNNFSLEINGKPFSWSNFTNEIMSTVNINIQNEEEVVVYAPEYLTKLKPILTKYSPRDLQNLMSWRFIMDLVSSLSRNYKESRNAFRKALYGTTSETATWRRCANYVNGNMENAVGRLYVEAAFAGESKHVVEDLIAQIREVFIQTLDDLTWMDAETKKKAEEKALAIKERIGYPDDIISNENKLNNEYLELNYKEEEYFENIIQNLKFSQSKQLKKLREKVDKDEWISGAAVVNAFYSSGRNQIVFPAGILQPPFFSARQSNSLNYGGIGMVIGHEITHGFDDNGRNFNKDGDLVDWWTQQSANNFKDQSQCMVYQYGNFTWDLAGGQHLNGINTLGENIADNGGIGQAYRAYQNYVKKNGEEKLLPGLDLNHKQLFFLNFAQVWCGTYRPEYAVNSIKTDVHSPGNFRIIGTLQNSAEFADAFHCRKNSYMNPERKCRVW
Method: as §1
The in vitro inhibition of NEP (EC 3.4.24.11) can be determined as follows:
NEP 3.4.24.11 activity is determined by the hydrolysis of the substrate glutaryl-Ala-Ala-Phe-2-naphthylamide […] using a modified procedure of Orlowski and Wilk (1981). The incubation mixture (total volume 125 μL) contains 4.2 μL of protein (rat kidney cortex membranes prepared by method of Maeda et al. (1983), 50 mM tris buffer, pH 7.4 at 25°0 C., 500 μM substrate (final concentration), and leucine aminopeptidase M (2.5 μg). The mixture is incubated for 10 minutes at 25° C., and 100 μL of fast garnet (250 μg fast garnet/mL of 10% Tween 20 in 1M sodium acetate pH 4.2) is added. Enzyme activity is measured spectrophotometrically at 540 nm. One unit of NEP 24.11 activity is defined as 1 nmol of 2-naphthylamine released per minute at 25° C. at pH 7.4. IC50 values are determined, i.e., the concentration of test compound required for 50% inhibition of the release of 2-naphthylamine.

[5] = biological target: rabbit antibodies that recognize specifically the carboxyl terminal tryptophan of ET-1; assay: RIA: displacement of [125I]ET-1 binding to anti-ET-1 antibodies; conditions: mean±SEM, n=3–5
Method: Diluted samples ([…]) obtained from the above enzyme assay are incubated at 4° C. overnight with 25 μL each of [^125I]ET-1 (10,000 cpm/tube) and 1:20,000-fold diluted rabbit antibodies that recognize specifically the carboxyl terminal tryptophan of ET-1. Goat anti-rabbit antibodies coupled to magnetic beads (70 μg) are then added to each tube, and the reaction mixture is further incubated for 30 minutes at room temperature. The beads are pelleted using a magnetic rack. The supernatant is decanted, and the radioactivity in the pellet is counted in a gamma counter. Total and non-specific binding are measured in the absence of non-radioactive ET-1 and anti-ET antibodies, respectively.

ACE, sequence (P12821 30-1306, species assumed): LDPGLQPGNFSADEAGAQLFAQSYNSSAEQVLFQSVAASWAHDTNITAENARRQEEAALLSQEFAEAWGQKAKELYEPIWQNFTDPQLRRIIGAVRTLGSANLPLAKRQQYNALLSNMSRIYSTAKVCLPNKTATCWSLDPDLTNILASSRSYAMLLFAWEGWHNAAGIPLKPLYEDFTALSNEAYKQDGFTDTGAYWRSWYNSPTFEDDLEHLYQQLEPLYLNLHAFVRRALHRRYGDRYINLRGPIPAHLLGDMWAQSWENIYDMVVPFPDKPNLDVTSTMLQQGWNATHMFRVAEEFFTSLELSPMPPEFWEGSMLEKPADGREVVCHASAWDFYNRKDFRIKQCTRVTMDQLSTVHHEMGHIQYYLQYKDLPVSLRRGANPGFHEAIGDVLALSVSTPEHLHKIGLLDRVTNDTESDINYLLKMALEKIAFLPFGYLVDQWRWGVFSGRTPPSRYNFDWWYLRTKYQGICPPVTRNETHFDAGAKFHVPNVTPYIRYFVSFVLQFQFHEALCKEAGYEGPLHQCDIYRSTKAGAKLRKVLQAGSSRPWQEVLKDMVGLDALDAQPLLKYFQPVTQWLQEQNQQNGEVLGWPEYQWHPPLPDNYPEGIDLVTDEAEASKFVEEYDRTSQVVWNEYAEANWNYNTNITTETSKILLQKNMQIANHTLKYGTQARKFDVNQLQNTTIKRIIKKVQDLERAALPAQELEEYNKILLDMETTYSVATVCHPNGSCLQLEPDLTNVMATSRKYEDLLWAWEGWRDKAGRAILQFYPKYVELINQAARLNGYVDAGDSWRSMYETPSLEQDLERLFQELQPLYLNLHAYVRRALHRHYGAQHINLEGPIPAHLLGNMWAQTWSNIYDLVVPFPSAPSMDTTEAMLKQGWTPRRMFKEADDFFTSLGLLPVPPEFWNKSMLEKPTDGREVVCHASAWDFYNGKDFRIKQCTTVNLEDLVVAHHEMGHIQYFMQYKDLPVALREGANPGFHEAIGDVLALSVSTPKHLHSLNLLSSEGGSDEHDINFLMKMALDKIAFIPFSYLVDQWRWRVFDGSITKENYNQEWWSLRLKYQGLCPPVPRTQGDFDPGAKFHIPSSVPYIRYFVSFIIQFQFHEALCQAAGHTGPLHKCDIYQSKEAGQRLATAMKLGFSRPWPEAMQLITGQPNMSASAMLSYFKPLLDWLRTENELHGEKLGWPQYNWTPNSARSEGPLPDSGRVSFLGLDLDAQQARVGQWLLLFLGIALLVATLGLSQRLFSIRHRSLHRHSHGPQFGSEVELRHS

Molecule: CCOC(=O)[C@H](Cc1ccc(OC)cc1)NC(=O)C(C)(C)NC(=O)[C@@H](SC(C)=O)C1CCOCC1 [Example 1f, N-[2-[(S)-2-acetylthio-2-(4-tetrahydropyranyl)-acetylamino]-2-methylpropionyl]-(L)-4-methoxyphenylalanine ethyl ester]
- inhibition of the angiotensin I induced pressor response [1]: 98%
- reduction of mean arterial pressure [2]: about 16 mm Hg

Molecule: COc1ccc(C[C@H](NC(=O)C(C)(C)NC(=O)[C@@H](S)C2CCOCC2)C(=O)O)cc1 [Example 2g, N-[2-[(S)-2-mercapto-2-(4-tetrahydropyranyl)-acetylamino]-2-methylpropionyl]-(L)-4-methoxyphenylalanine]
- IC50 [3]: ~5.9 nM
- IC50 [4]: ~4.8 nM

Molecule: ET-1: non-radioactive ET-1, the peptide formed from big ET-1 by ECE and measured by RIA
- IC50 for displacement of [125I]ET-1 binding to the antibodies [5]: 21 ± 2 fmol

Molecule: big ET-1: ECE substrate from which ET-1 is formed; added in the ECE-1 assay (CSCSSLMDKECVYFCHLDIIWVNTPEHVVPYGLGSPRS; disulfide 1-15, 3-11; ends not checked; UniProt P05305 53-90, looked up)
- IC50 for displacement of [125I]ET-1 binding to the antibodies [5]: 260,000±66,000 fmol
